Laboratory results: PubChem BioAssay AID1259407 (Chemical Carcinogenesis Research Information System (CCRIS), 2018)
Active and inactive are the calls of the source. No rule for the calls is given here.

Test system: CCRIS mutagenicity, Ames/micronucleus/aberration tests
Assay: CCRIS mutagenicity studies

CCC(C)Br (stereo not given)
mutagenic call (Test System: AMES SALMONELLA TYPHIMURIUM, Strain/Indicator: TA100, Metabolic Activation: NONE, Method: DESICCATOR): active; positive
mutagenic call (Test System: AMES SALMONELLA TYPHIMURIUM, Strain/Indicator: TA100, Metabolic Activation: RAT, LIVER, S-9, AROCLOR 1254, Method: DESICCATOR): active; positive
mutagenic call (Test System: AMES SALMONELLA TYPHIMURIUM, Strain/Indicator: TA1535, Metabolic Activation: NONE, Method: DESICCATOR): active; positive
mutagenic call (Test System: AMES SALMONELLA TYPHIMURIUM, Strain/Indicator: TA1535, Metabolic Activation: RAT, LIVER, S-9, AROCLOR 1254, Method: DESICCATOR): active; positive

NC(CO)Cc1cnc[nH]1 (stereo not given)
mutagenic call (Test System: MOUSE LYMPHOMA, Strain/Indicator: L5178Y (TK+/TK-), Metabolic Activation: NONE, Method: SUSPENSION/PLATE): inactive; negative. reevaluation of results: negative
mutagenic call (Test System: MOUSE LYMPHOMA, Strain/Indicator: L5178Y (TK+/TK-), Metabolic Activation: RAT, LIVER, S-9, AROCLOR 1254, Method: SUSPENSION/PLATE): inactive; negative. reevaluation of results: negative

CCOC(C)C(=O)C(O)O (stereo not given)
mutagenic call (Test System: AMES SALMONELLA TYPHIMURIUM, Strain/Indicator: TA102, Metabolic Activation: NONE, Method: STANDARD PLATE): active; positive
mutagenic call (Test System: AMES SALMONELLA TYPHIMURIUM, Strain/Indicator: TA104, Metabolic Activation: NONE, Method: PREINCUBATION): active; positive
mutagenic call (Test System: AMES SALMONELLA TYPHIMURIUM, Strain/Indicator: TA2638A, Metabolic Activation: NONE, Method: STANDARD PLATE): active; positive

CCCN(CCCC(=O)O)N=O
mutagenic call (Test System: AMES SALMONELLA TYPHIMURIUM, Strain/Indicator: TA1535, Metabolic Activation: RAT, LIVER, S-9, KC500 OR PHENOBARBITAL, Method: LIQUID SUSPENSION): active; positive

CC(CNC(=O)c1cccnc1)NC(=O)c1cccnc1 (stereo not given)
mutagenic call (Test System: AMES SALMONELLA TYPHIMURIUM, Strain/Indicator: TA98, Metabolic Activation: NONE, Method: STANDARD PLATE): inactive; negative
mutagenic call (Test System: AMES SALMONELLA TYPHIMURIUM, Strain/Indicator: TA98, Metabolic Activation: RAT, LIVER, S-9, PHENOBARBITAL AND 5,6-BENZOFLAVONE, Method: STANDARD PLATE): inactive; negative
mutagenic call (Test System: AMES SALMONELLA TYPHIMURIUM, Strain/Indicator: TA100, Metabolic Activation: NONE, Method: STANDARD PLATE): inactive; negative
mutagenic call (Test System: AMES SALMONELLA TYPHIMURIUM, Strain/Indicator: TA100, Metabolic Activation: RAT, LIVER, S-9, PHENOBARBITAL AND 5,6-BENZOFLAVONE, Method: STANDARD PLATE): inactive; negative
mutagenic call (Test System: AMES SALMONELLA TYPHIMURIUM, Strain/Indicator: TA1535, Metabolic Activation: NONE, Method: STANDARD PLATE): inactive; negative
mutagenic call (Test System: AMES SALMONELLA TYPHIMURIUM, Strain/Indicator: TA1535, Metabolic Activation: RAT, LIVER, S-9, PHENOBARBITAL AND 5,6-BENZOFLAVONE, Method: STANDARD PLATE): inactive; negative
mutagenic call (Test System: AMES SALMONELLA TYPHIMURIUM, Strain/Indicator: TA1537, Metabolic Activation: NONE, Method: STANDARD PLATE): inactive; negative
mutagenic call (Test System: AMES SALMONELLA TYPHIMURIUM, Strain/Indicator: TA1537, Metabolic Activation: RAT, LIVER, S-9, PHENOBARBITAL AND 5,6-BENZOFLAVONE, Method: STANDARD PLATE): inactive; negative
mutagenic call (Test System: E. COLI, Strain/Indicator: WP2 UVRA, Metabolic Activation: NONE, Method: STANDARD PLATE): inactive; negative
mutagenic call (Test System: E. COLI, Strain/Indicator: WP2 UVRA, Metabolic Activation: RAT, LIVER, S-9, PHENOBARBITAL AND 5,6-BENZOFLAVONE, Method: STANDARD PLATE): inactive; negative
